# ChEMBL document CHEMBL4270588, “Bioactive heterocycles containing a 3,4,5-trimethoxyphenyl fragment exerting potent antiproliferative activity through microtubule destabilization” (Eur J Med Chem, 2018)
# Activity calls are given as the source filed them. The calls are words filed in the database; no cut-off is given here.
# How the values were obtained:
# ECa-109 cell line = assay: Antiproliferative activity against human EC109 cells after 48 hrs by MTT assay; assay type: functional, cell-based; conditions: ECa-109, 48 h
# PC-3 = assay: Antiproliferative activity against human PC3 cells after 48 hrs by MTT assay; assay type: functional, cell-based; conditions: PC-3, 48 h
# MGC-803 [1] = assay: Antiproliferative activity against human MGC803 cells after 48 hrs by MTT assay; assay type: functional, cell-based; conditions: MGC-803, 48 h
# Tubulin [2] = assay: Inhibition of tubulin polymerization (unknown origin) by turbidimetric method; assay type: protein-complex assay, Homo sapiens
# Homo sapiens [3] = species on record: Homo sapiens; assay: Inhibition of EBI binding to beta-tubulin colchicine binding site in human MGC803 cells at 5 uM preincubated for 2 hrs followed by EBI addition and measured after 2 hrs by Western blot analysis; assay type: cell-based
# MGC-803 [4] = assay: Induction of apoptosis in human MGC803 cells assessed as necrotic cells at 200 nM after 48 hrs by Annexin-V-FITC/propidium iodide staining based flow cytometry (reference value: 0.1%); assay type: functional
# MGC-803 [5] = assay: Induction of apoptosis in human MGC803 cells assessed as early apoptotic cells at 400 nM after 48 hrs by Annexin-V-FITC/propidium iodide staining based flow cytometry (reference value: 2.5%); assay type: functional
# MGC-803 [6] = assay: Disruption of mitochondrial membrane potential in human MGC803 cells assessed as collapse of the mitochondrial membrane potential at 600 nM after 48 hrs by JC1 staining based flow cytometry (reference value: 96.1%); assay type: functional
# MGC-803 [7] = assay: Induction of apoptosis in human MGC803 cells assessed as decrease in XIAP level after 48 hrs by Western blot analysis; assay type: functional, cell-based
# MGC-803 [8] = assay: Induction of apoptosis in human MGC803 cells assessed as early apoptotic cells at 600 nM after 48 hrs by Annexin-V-FITC/propidium iodide staining based flow cytometry (reference value: 2.5%); assay type: functional
# MGC-803 [9] = assay: Induction of apoptosis in human MGC803 cells assessed as decrease in Bcl2 level after 48 hrs by Western blot analysis; assay type: functional, cell-based
# MGC-803 [10] = assay: Induction of apoptosis in human MGC803 cells assessed as live cells at 400 nM after 48 hrs by Annexin-V-FITC/propidium iodide staining based flow cytometry (reference value: 96.4%); assay type: functional
# MGC-803 [11] = assay: Disruption of mitochondrial membrane potential in human MGC803 cells assessed as intact mitochondrial membrane at 200 nM after 48 hrs by JC1 staining based flow cytometry (reference value: 3.9%); assay type: functional
# MGC-803 [12] = assay: Induction of apoptosis in human MGC803 cells assessed as early apoptotic cells at 200 nM after 48 hrs by Annexin-V-FITC/propidium iodide staining based flow cytometry (reference value: 2.5%); assay type: functional
# MGC-803 [13] = assay: Cell cycle arrest in human MGC803 cells assessed as accumulation at S phase at 200 nM after 48 hrs by propidium iodide staining based flow cytometry (reference value: 24.8%); assay type: functional
# MGC-803 [14] = assay: Induction of apoptosis in human MGC803 cells assessed as decrease in PARP level after 48 hrs by Western blot analysis; assay type: functional, cell-based
# MGC-803 [15] = assay: Cell cycle arrest in human MGC803 cells assessed as down regulation of cyclin B1 expression after 48 hrs by Western blot analysis; assay type: functional, cell-based
# MGC-803 [16] = assay: Cell cycle arrest in human MGC803 cells assessed as accumulation at G1 phase at 200 nM after 48 hrs by propidium iodide staining based flow cytometry (reference value: 62.61%); assay type: functional
# MGC-803 [17] = assay: Disruption of mitochondrial membrane potential in human MGC803 cells assessed as intact mitochondrial membrane at 400 nM after 48 hrs by JC1 staining based flow cytometry (reference value: 3.9%); assay type: functional
# MGC-803 [18] = assay: Disruption of mitochondrial membrane potential in human MGC803 cells assessed as collapse of the mitochondrial membrane potential at 200 nM after 48 hrs by JC1 staining based flow cytometry (reference value: 96.1%); assay type: functional
# MGC-803 [19] = assay: Induction of apoptosis in human MGC803 cells assessed as late apoptotic cells at 200 nM after 48 hrs by Annexin-V-FITC/propidium iodide staining based flow cytometry (reference value: 1%); assay type: functional
# MGC-803 [20] = assay: Induction of apoptosis in human MGC803 cells assessed as live cells at 200 nM after 48 hrs by Annexin-V-FITC/propidium iodide staining based flow cytometry (reference value: 96.4%); assay type: functional
# MGC-803 [21] = assay: Cell cycle arrest in human MGC803 cells assessed as accumulation at G1 phase at 400 nM after 48 hrs by propidium iodide staining based flow cytometry (reference value: 62.61%); assay type: functional
# MGC-803 [22] = assay: Cell cycle arrest in human MGC803 cells assessed as accumulation at G2 phase at 200 nM after 48 hrs by propidium iodide staining based flow cytometry (reference value: 8.76%); assay type: functional
# MGC-803 [23] = assay: Cell cycle arrest in human MGC803 cells assessed as down regulation of CDK1 expression after 48 hrs by Western blot analysis; assay type: functional, cell-based
# Homo sapiens [24] = species on record: Homo sapiens; assay: Inhibition of EBI binding to beta-tubulin colchicine binding site in human MGC803 cells at […] preincubated for 2 hrs followed by EBI addition and measured after 2 hrs by Western blot analysis; assay type: cell-based
# MGC-803 [25] = assay: Induction of apoptosis in human MGC803 cells assessed as necrotic cells at 600 nM after 48 hrs by Annexin-V-FITC/propidium iodide staining based flow cytometry (reference value: 0.1%); assay type: functional
# MGC-803 [26] = assay: Disruption of mitochondrial membrane potential in human MGC803 cells assessed as collapse of the mitochondrial membrane potential at 400 nM after 48 hrs by JC1 staining based flow cytometry (reference value: 96.1%); assay type: functional
# MGC-803 [27] = assay: Induction of apoptosis in human MGC803 cells assessed as late apoptotic cells at 400 nM after 48 hrs by Annexin-V-FITC/propidium iodide staining based flow cytometry (reference value: 1%); assay type: functional
# MGC-803 [28] = assay: Cell cycle arrest in human MGC803 cells assessed as accumulation at G2 phase at 400 nM after 48 hrs by propidium iodide staining based flow cytometry (reference value: 8.76%); assay type: functional
# MGC-803 [29] = assay: Induction of apoptosis in human MGC803 cells assessed as live cells at 600 nM after 48 hrs by Annexin-V-FITC/propidium iodide staining based flow cytometry (reference value: 96.4%); assay type: functional
# Tubulin (Homo sapiens) = Tubulin (Homo sapiens) (UniProt P68371+Q9H4B7+P0DPH7+P68366+Q13509+Q71U36+P04350+Q3ZCM7+P07437+P68363+Q9BQE3+Q6PEY2+Q13885+Q9BVA1+Q9BUF5); assay: Inhibition of tubulin polymerization in human MGC803 cells assessed as depolymerization of interphase microtubules at 600 nM after 4 to 8 hrs by DAPI staining based microscopic analysis; assay type: cell-based
# MGC-803 [30] = assay: Disruption of mitochondrial membrane potential in human MGC803 cells assessed as intact mitochondrial membrane at 600 nM after 48 hrs by JC1 staining based flow cytometry (reference value: 3.9%); assay type: functional
# MGC-803 [31] = assay: Cell cycle arrest in human MGC803 cells assessed as accumulation at S phase at 400 nM after 48 hrs by propidium iodide staining based flow cytometry (reference value: 24.8%); assay type: functional
# MGC-803 [32] = assay: Induction of apoptosis in human MGC803 cells assessed as necrotic cells at 400 nM after 48 hrs by Annexin-V-FITC/propidium iodide staining based flow cytometry (reference value: 0.1%); assay type: functional
# Tubulin [33] = assay: Inhibition of tubulin polymerization (unknown origin) measured every 5 mins by fluorescence assay; assay type: protein-complex assay, Homo sapiens
# MGC-803 [34] = assay: Disruption of mitochondrial membrane potential in human MGC803 cells after 48 hrs by JC1 staining based flow cytometry; assay type: functional, cell-based
# MGC-803 [35] = assay: Induction of apoptosis in human MGC803 cells assessed as late apoptotic cells at 600 nM after 48 hrs by Annexin-V-FITC/propidium iodide staining based flow cytometry (reference value: 1%); assay type: functional
smiles,measurement,setting,value
COc1ccc(CN(C(=O)CSc2nc3ccccc3[nH]2)c2cc(OC)c(OC)c(OC)c2)cc1,IC50,ECa-109 cell line,42.6 µM
same,IC50,PC-3,14.3 µM
same,IC50,MGC-803 [1],1.23 µM
Cc1ccc(S(=O)(=O)NCc2cn(Cc3cccc(Oc4ccccc4)c3)nn2)cc1,IC50,Tubulin [2],2.41 µM
COc1ccc(CN(C(=O)CSc2nnnn2C)c2cc(OC)c(OC)c(OC)c2)cc1,IC50,ECa-109 cell line,5.54 µM
same,IC50,PC-3,10.5 µM
same,IC50,MGC-803 [1],2.49 µM
COc1ccc(CN(C(=O)CCSc2nc3ccccc3o2)c2cc(OC)c(OC)c(OC)c2)cc1,IC50,ECa-109 cell line,12.6 µM
same,IC50,PC-3,20.2 µM
same,IC50,MGC-803 [1],0.64 µM
COc1ccc(CN(C(=O)CSc2nncs2)c2cc(OC)c(OC)c(OC)c2)cc1,IC50,ECa-109 cell line,9.84 µM
same,IC50,PC-3,5.53 µM
same,IC50,MGC-803 [1],1.15 µM
COc1ccc(CN(C(=O)CCCSc2nc3ccccc3o2)c2cc(OC)c(OC)c(OC)c2)cc1,IC50,ECa-109 cell line,11 µM
same,IC50,PC-3,32.7 µM
same,IC50,MGC-803 [1],1.29 µM
COc1ccc(CN(C(=O)CSc2ccccn2)c2cc(OC)c(OC)c(OC)c2)cc1,IC50,ECa-109 cell line,16 µM
same,IC50,PC-3,7.51 µM
same,IC50,MGC-803 [1],2.41 µM
COc1ccc(CN(C(=O)CSc2nc3ccc(OC)cc3s2)c2cc(OC)c(OC)c(OC)c2)cc1,IC50,ECa-109 cell line,> 80 µM
same,IC50,PC-3,20.2 µM
same,IC50,MGC-803 [1],1.27 µM
COc1cc2c(c(OC)c1OC)-c1ccc(OC)c(=O)cc1[C@@H](NC(C)=O)CC2 [COLCHICINE],inhibition,Homo sapiens [3],Active
same,IC50,ECa-109 cell line,1.24 µM
same,IC50,PC-3,0.13 µM
same,IC50,MGC-803 [1],0.177 µM
COc1ccc(CN(C(=O)CSc2nc3ccccc3o2)c2cc(OC)c(OC)c(OC)c2)cc1,Activity,MGC-803 [4],0.1%
same,Activity,MGC-803 [5],4.1%
same,Activity,MGC-803 [6],52.8%
same,Activity,MGC-803 [7],Dose-dependent effect
same,Activity,MGC-803 [8],4.9%
same,Activity,MGC-803 [9],Dose-dependent effect
same,Activity,MGC-803 [10],89.7%
same,IC50,ECa-109 cell line,24.8 µM
same,Activity,MGC-803 [11],96.1%
same,Activity,MGC-803 [12],2.8%
same,Activity,MGC-803 [13],23.29%
same,Activity,MGC-803 [14],Dose-dependent effect
same,Activity,MGC-803 [15],Dose-dependent effect
same,Activity,MGC-803 [16],61.68%
same,Activity,MGC-803 [17],60.1%
same,Activity,MGC-803 [18],3.9%
same,Activity,MGC-803 [19],1.1%
same,Activity,MGC-803 [20],95.9%
same,Activity,MGC-803 [21],52.55%
same,Activity,MGC-803 [22],12.13%
same,Activity,MGC-803 [23],Dose-dependent effect
same,IC50,PC-3,3.53 µM
same,inhibition,Homo sapiens [24],Active
same,IC50,MGC-803 [1],0.45 µM
same,Activity,MGC-803 [25],3.1%
same,Activity,MGC-803 [26],39.9%
same,Activity,MGC-803 [27],4.3%
same,Activity,MGC-803 [28],20.71%
same,Activity,MGC-803 [29],61.7%
same,inhibition,Tubulin (Homo sapiens),Active
same,Activity,MGC-803 [30],47.2%
same,Activity,MGC-803 [31],22.46%
same,Activity,MGC-803 [32],1.9%
same,IC50,Tubulin [33],3.35 µM
same,Activity,MGC-803 [34],Dose-dependent effect
same,Activity,MGC-803 [35],30.3%
COc1ccc(CN(C(=O)CCCCSc2nc3ccccc3o2)c2cc(OC)c(OC)c(OC)c2)cc1,IC50,ECa-109 cell line,7.65 µM
same,IC50,PC-3,45.6 µM
same,IC50,MGC-803 [1],1.36 µM
